Experimental data from patent publication US7795229B2, “Serum cholesterol lowering agent or preventative or therapeutic agent for atherosclerosis” (Kotobuki Pharmaceutical Co., Ltd., priority 2003, dated 2010).

Assays:
cholesterol-fed rat = experiment: Serum cholesterol lowering action in cholesterol-fed rat; format: in vivo; conditions: for Reduction % of serum cholesterol value: cholesterol-fed rat, value to control
Protocol: Male Splague-Dawley rats weighing 300˜500 g (Nihon SLC Co. Ltd.) were fed MF-2 chow (Nihon Crea Co. Ltd.) until study onset. At the study onset, the chow was changed to MF-2 chow containing 1% cholesterol and 0.5% cholic acid. […] Twenty hours after the last administration, blood was collected from the abdominal aorta under ether anaesthesia, and serum was separated. The cholesterol value was measured using Cholesterol E Test Wako (Wako Pure Chemical Co. Ltd.). […] The experimental 5 and 6 indicates the combined dosage examples in the present invention. Each reduction percent is shown as the value to control.
Except of the use of compound 37 instead of compound 56, quietly same experiment to pharmacological experiment 1 was carried out. Each reduction % is shown as the value to control.

[1] = alone, 0.03 mg/kg/day, once a day for 7 days
[2] = alone, 0.3 mg/kg/day, once a day for 7 days
[3] = alone, 1 mg/kg/day, once a day for 7 days
[4] = combined dosage: compound 0.3 mg/kg/day + atorvastatin 1 mg/kg/day
[5] = combined dosage: compound 0.3 mg/kg/day + atorvastatin 1 mg/kg/day, 7 days
[6] = combined dosage: compound 0.3 mg/kg/day + fenofibrate 10 mg/kg/day
[7] = combined dosage: compound 0.3 mg/kg/day + fenofibrate 10 mg/kg/day, 7 days

Row | melting point [°C] | Compound | other results
1 | 80 to 82 | O=C1[C@H](CC[C@H](O)c2ccc(F)cc2)[C@@H](c2ccc([C@@H]3O[C@H](CO)[C@@H](O)[C@H](O)[C@H]3O)cc2)N1c1ccccc1 [Compound 37] | Reduction % of serum cholesterol value (cholesterol-fed rat; [1]): 5.6%; Reduction % of serum cholesterol value (cholesterol-fed rat; [2]): 18.0%; Reduction % of serum cholesterol value (cholesterol-fed rat; [3]): 31.0%; Combination effect on reduction % of serum cholesterol versus sum of agents alone (cholesterol-fed rat; [4]): synergistic effect; Reduction % of serum cholesterol value (cholesterol-fed rat; [5]): 31.5%; Combination effect on reduction % of serum cholesterol versus sum of agents alone (cholesterol-fed rat; [6]): synergistic effect; Reduction % of serum cholesterol value (cholesterol-fed rat; [7]): 39.5%
2 | 82 to 84 | O=C1[C@H](CC[C@H](O)c2ccc(F)cc2)[C@@H](c2ccc(CC[C@@H]3O[C@H](CO)[C@@H](O)[C@H](O)[C@H]3O)cc2)N1c1ccccc1 [Compound 56] | Reduction % of serum cholesterol value (cholesterol-fed rat; [1]): 1.9%; Reduction % of serum cholesterol value (cholesterol-fed rat; [2]): 6.9%; Reduction % of serum cholesterol value (cholesterol-fed rat; [3]): 33.5%; Combination effect on reduction % of serum cholesterol versus sum of agents alone (cholesterol-fed rat; [4]): synergistic effect; Reduction % of serum cholesterol value (cholesterol-fed rat; [5]): 20.2%; Combination effect on reduction % of serum cholesterol versus sum of agents alone (cholesterol-fed rat; [6]): synergistic effect; Reduction % of serum cholesterol value (cholesterol-fed rat; [7]): 41.3%
3 | 82 to 84 | O=C(O)[C@H]1O[C@@H](Cc2ccc([C@@H]3[C@@H](CC[C@H](O)c4ccc(F)cc4)C(=O)N3c3ccc(F)cc3)cc2)[C@H](O)[C@@H](O)[C@@H]1O [Compound 33] | 
4 | 64 to 65 | O=C1[C@H](CCOc2ccc(F)cc2)[C@@H](c2ccc(OC[C@@H]3O[C@H](CO)[C@@H](O)[C@H](O)[C@H]3O)cc2)N1c1ccc(F)cc1 [Compound 15] | 
5 | 60 to 61 | CC(=O)OC[C@H]1O[C@@H](Cc2ccc([C@@H]3[C@@H](CCCc4ccc(F)cc4)C(=O)N3c3ccccc3)cc2)[C@H](OC(C)=O)[C@@H](OC(C)=O)[C@@H]1OC(C)=O [Compound 10] | 
6 | 80 to 82 | Cc1ccc(N2C(=O)[C@H](CCCc3ccc(F)cc3)[C@H]2c2ccc(C[C@@H]3O[C@H](CO)[C@@H](O)[C@H](O)[C@H]3O)cc2)cc1 [Compound 7] | 
7 |  | CC(C)c1c(C(=O)Nc2ccccc2)c(-c2ccccc2)c(-c2ccc(F)cc2)n1CC[C@@H](O)C[C@@H](O)CC(=O)O [Atorvastatin, atorvastatin, reference compound] | Reduction % of serum cholesterol value (cholesterol-fed rat; [3]): 6.2%
8 | 81 to 83 | O=C1[C@H](CC[C@H](O)c2ccc(F)cc2)[C@@H](c2ccc([C@@H]3O[C@H](CO)[C@@H](O)[C@H](O)[C@H]3O)cc2)N1c1ccc(F)cc1 [Compound 35] | 
9 | 200 to 201 | O=C1[C@H](CC[C@H](O)c2ccc(F)cc2)[C@@H](c2ccc(F)cc2)N1c1ccc(C[C@@H]2O[C@H](CO)[C@@H](O)[C@H](O)[C@H]2O)cc1 [Compound 38] | 
10 | 64 to 66 | CC(=O)OC[C@H]1O[C@@H](Cc2ccc([C@@H]3[C@@H](CCOc4ccc(F)cc4)C(=O)N3c3ccc(F)cc3)cc2)[C@H](OC(C)=O)[C@@H](OC(C)=O)[C@@H]1OC(C)=O [Compound 13] | 
11 | 61 to 63 | O=C1[C@H](CC[C@H](O)c2ccc(F)cc2)[C@@H](c2ccc(CCCOC[C@@H]3O[C@H](CO)[C@@H](O)[C@H](O)[C@H]3O)cc2)N1c1ccc(F)cc1 [Compound 50] | 
12 | 65 to 67 | O=C1[C@H](CCOc2ccc(F)cc2)[C@@H](c2ccc(C[C@@H]3O[C@H](CO)[C@@H](O)[C@H](O)[C@H]3O)cc2)N1c1ccc(F)cc1 [Compound 12] | 
13 | 76 to 78 | CCOC(=O)C(C)(C)Oc1ccc(N2C(=O)[C@H](CCCc3ccc(C)cc3)[C@H]2c2ccc(C[C@@H]3O[C@H](CO)[C@@H](O)[C@H](O)[C@H]3O)cc2)cc1 [Compound 20] | 
14 | 61 to 62 | O=C1[C@H](CCCc2ccc(F)cc2)[C@@H](c2ccc(OC[C@@H]3O[C@H](CO)[C@@H](O)[C@H](O)[C@H]3O)cc2)N1c1ccc(F)cc1 [Compound 14] | 
15 | 69 to 71 | O=C1[C@H](CC[C@H](O)c2ccc(F)cc2)[C@@H](c2ccc(/C=C/CCC[C@@H]3O[C@H](CO)[C@@H](O)[C@H](O)[C@H]3O)cc2)N1c1ccc(F)cc1 [Compound 54] | 
16 | 89 to 90 | O=C1[C@H](CCCc2ccc(F)cc2)[C@@H](c2ccc(C3O[C@H](CO)[C@@H](O)[C@H](O)[C@H]3O)cc2)N1c1ccc(F)cc1 (some centres unmarked) [Compound 1] | 
17 | 81 to 83 | O=C1[C@H](CC[C@H](O)c2ccc(F)cc2)[C@@H](c2ccc(CCC[C@@H]3O[C@H](CO)[C@@H](O)[C@H](O)[C@H]3O)cc2)N1c1ccc(F)cc1 [Compound 48] | 
18 | 110 to 112 | O=C(O)[C@H]1O[C@@H](CCc2ccc([C@@H]3[C@@H](CC[C@H](O)c4ccc(F)cc4)C(=O)N3c3ccccc3)cc2)[C@H](O)[C@@H](O)[C@@H]1O [Compound 58] | 
19 | 74 to 75 | O=C1[C@H](CCCc2ccccc2)[C@@H](c2ccc(C[C@@H]3O[C@H](CO)[C@@H](O)[C@H](O)[C@H]3O)cc2)N1c1ccc(F)cc1 [Compound 11] | 
20 | 73 to 74 | CCOC(=O)C(C)(C)Oc1ccc(N2C(=O)[C@H](CCCc3ccc(F)cc3)[C@H]2c2ccc(C[C@@H]3O[C@H](CO)[C@@H](O)[C@H](O)[C@H]3O)cc2)cc1 [Compound 18] | 
21 | 86 to 88 | Cc1ccc(N2C(=O)[C@H](CCC(=O)c3ccc(F)cc3)[C@H]2c2ccc(C[C@@H]3O[C@H](CO)[C@@H](O)[C@H](O)[C@H]3O)cc2)cc1 [Compound 28] | 
22 | 102 to 104 | Cc1ccc(N2C(=O)[C@H](CC[C@H](O)c3ccc(F)cc3)[C@H]2c2ccc(C[C@@H]3O[C@H](CO)[C@@H](O)[C@H](O)[C@H]3O)cc2)cc1 [Compound 24] | 
23 | 79 to 81 | Cc1ccc(N2C(=O)[C@H](CC[C@H](O)c3ccc(F)cc3)[C@H]2c2ccc([C@@H]3O[C@H](CO)[C@@H](O)[C@H](O)[C@H]3O)cc2)cc1 [Compound 36] | 
24 | 60 to 62 | COc1ccc(N2C(=O)[C@H](CCCc3ccc(F)cc3)[C@H]2c2ccc(C[C@@H]3O[C@H](COC(C)=O)[C@@H](OC(C)=O)[C@H](OC(C)=O)[C@H]3OC(C)=O)cc2)cc1 [Compound 6] | 
